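All cell lines were grown in 96-well plates and treated with compound for 48 hours. The concentration for 50% growth inhibition is given as GI50.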 Calls of active or inactive are those of the source. No stated cut-off is given here; in the data, active = GI50 up to about 1.1 µM and inactive = higher. Where a SMILES comes first, the peptide text is derived from it. [ ]: non-standard residue; d: D form. Phe(4-Cl) = N[CH](Cc1ccc(Cl)cc1)C(=O)O
Experiments:
Assay in all cases: NCI tumour cell line growth inhibition, 48 h
RXF 631 = test system: RXF 631
DMS-273 = test system: DMS-273
DMS-114 = test system: DMS-114
XF498 = test system: XF498
DLD-1 = test system: DLD-1
M19-MEL = test system: M19-MEL
SNB-78 = test system: SNB-78
KM-20L2 = test system: KM-20L2
HOP-18 = test system: HOP-18

Compound	GI50 (RXF 631)	GI50 (DMS-273)	GI50 (DMS-114)	GI50 (XF498)	GI50 (DLD-1)	GI50 (M19-MEL)	GI50 (SNB-78)	GI50 (KM-20L2)	GI50 (HOP-18)
CC(O)C(NC(=O)C(Cc1ccccc1)NC(=O)C(NC(=O)C(CCCCN)NC(=O)C(Cc1c[nH]c2ccccc12)NC(=O)C(Cc1ccc(O)cc1)NC(=O)C(Cc1ccc(Cl)cc1)NC(=O)C(N)Cc1ccccc1)C(C)O)C(N)=O (stereo unspecified) (H-F[Phe(4-Cl)]YWKTFT-NH2; configuration not given here)	19.4 µM (inactive)	33 µM (inactive)	17.3 µM (inactive)	14.2 µM (inactive)	20.3 µM (inactive)	21.5 µM (inactive)	25.4 µM (inactive)	21.2 µM (inactive)	
CC1=NN(C(=O)c2ccc(Cl)cc2)C(=O)/C1=C/c1ccc(O)cc1			> 100 µM (inactive)	> 100 µM (inactive)	> 100 µM (inactive)	> 100 µM (inactive)		> 100 µM (inactive)	
COC(=O)C1(F)C(=O)NC(=O)NC1OC (stereo unspecified)		21.2 µM (inactive)	73.3 µM (inactive)	67.1 µM (inactive)	5.92 µM (inactive)	18.7 µM (inactive)	> 100 µM (inactive)	50.9 µM (inactive)	88.7 µM (inactive)
COc1ccc2c(c1)[n+]([O-])c(C(=O)CC(=O)C(=O)Nc1cccc(Cl)c1C)c(C)[n+]2[O-]		> 100 µM (inactive)				42.9 µM (inactive)	> 100 µM (inactive)	> 100 µM (inactive)	> 100 µM (inactive)
CCCCC#COP(=O)(OCC)OCC	> 100 µM (inactive)		> 100 µM (inactive)		> 100 µM (inactive)	> 100 µM (inactive)	> 100 µM (inactive)	> 100 µM (inactive)	
CCOP(=O)(OCC)/C(C#N)=C/c1ccco1	> 100 µM (inactive)		> 100 µM (inactive)	> 100 µM (inactive)	> 100 µM (inactive)	> 100 µM (inactive)	> 100 µM (inactive)		> 100 µM (inactive)
CC1(C)C(=O)/C=C\C(=O)C(C)(C)C(=O)/C=C\C(=O)C(C)(C)C(=O)/C=C\C(=O)C(C)(C)C(=O)/C=C\C1=O		16.8 µM (inactive)		30.3 µM (inactive)	14.9 µM (inactive)	20.2 µM (inactive)	17.4 µM (inactive)	26.6 µM (inactive)	22.3 µM (inactive)
Cc1ccc2ccc3ccc(C)nc3c2n1 [NEOCUPROINE]		2.36 µM (inactive)	0.388 µM (active)		0.656 µM (active)	3.44 µM (inactive)	> 100 µM (inactive)	6.24 µM (inactive)	63.4 µM (inactive)
CN(C)CC1CCC(=C2CCCC2)C1=O (stereo unspecified)		18.3 µM (inactive)	8.81 µM (inactive)	6.84 µM (inactive)	2.82 µM (inactive)	16.8 µM (inactive)	12.6 µM (inactive)	18.7 µM (inactive)	16.7 µM (inactive)
COC(=O)CCC(NC(=S)N/N=C/c1ccco1)C(=O)OC (stereo unspecified)	> 100 µM (inactive)	> 100 µM (inactive)	> 100 µM (inactive)	> 100 µM (inactive)	> 100 µM (inactive)	> 100 µM (inactive)	> 100 µM (inactive)	> 100 µM (inactive)	> 100 µM (inactive)
COc1ccc2c(c1)NC1(O)c3ccccc3C(=O)C21O (stereo unspecified)	> 100 µM (inactive)	> 100 µM (inactive)	> 100 µM (inactive)	25 µM (inactive)	> 100 µM (inactive)	> 100 µM (inactive)	> 100 µM (inactive)	> 100 µM (inactive)	> 100 µM (inactive)
CS(=O)(=O)NNS(=O)(=O)c1ccc(Cl)cc1	> 100 µM (inactive)	> 100 µM (inactive)	> 100 µM (inactive)	> 100 µM (inactive)	> 100 µM (inactive)	> 100 µM (inactive)		> 100 µM (inactive)	
CCOC(=O)c1c(-c2ccccc2)oc(-c2ccccc2)c1C(=O)OCC		> 100 µM (inactive)	> 100 µM (inactive)	29.2 µM (inactive)	> 100 µM (inactive)	56.4 µM (inactive)	> 100 µM (inactive)	38.9 µM (inactive)	> 100 µM (inactive)
Cc1ccc2c(c1)C(c1cccc3ccccc13)OC2=O (stereo unspecified)	27.7 µM (inactive)	> 100 µM (inactive)	> 100 µM (inactive)		75 µM (inactive)	> 100 µM (inactive)		> 100 µM (inactive)	71.6 µM (inactive)
COC(=N)c1csc(C2OC(CO)C(O)C2O)n1 (stereo unspecified)	> 100 µM (inactive)	> 100 µM (inactive)	> 100 µM (inactive)	> 100 µM (inactive)	83.9 µM (inactive)	> 100 µM (inactive)	> 100 µM (inactive)	> 100 µM (inactive)	> 100 µM (inactive)
Cc1ccccc1/N=C/c1ccc(N(CCC#N)S(=O)(=O)c2ccccc2)cc1	> 100 µM (inactive)	> 100 µM (inactive)	> 100 µM (inactive)	> 100 µM (inactive)	> 100 µM (inactive)	> 100 µM (inactive)	> 100 µM (inactive)	> 100 µM (inactive)	> 100 µM (inactive)
COC1=CC2(C=CC1=O)c1cc(OC)c(OC)cc1CCN2C(=O)c1ccccc1 (stereo unspecified)		> 100 µM (inactive)	> 100 µM (inactive)		> 100 µM (inactive)		> 100 µM (inactive)		98.2 µM (inactive)
CCCCCCCC1(c2ccc(N)cc2)CCC(=O)NC1=O (stereo unspecified)	41 µM (inactive)	26.9 µM (inactive)	24.2 µM (inactive)	27.2 µM (inactive)	33.7 µM (inactive)	37.8 µM (inactive)	31.6 µM (inactive)	33 µM (inactive)	
CCCCCC1C2C(=O)NC(=O)C1C(=O)NC2=O (stereo unspecified)		> 100 µM (inactive)	> 100 µM (inactive)	> 100 µM (inactive)	> 100 µM (inactive)	> 100 µM (inactive)		> 100 µM (inactive)	
CC(=O)Nc1ccc(C(=O)NN2C(=O)C(Cl)C2c2cc(Br)ccc2O)cc1 (stereo unspecified)					4.74 µM (inactive)	4.12 µM (inactive)			4.41 µM (inactive)

— ChEMBL document CHEMBL1201862, “PubChem BioAssay data set” (2004)
